Source: PMC7603405 (Nature, 2020)
Entries after “also recorded” stand apart in the source; their conditions may differ. Peptide text beside a SMILES is read from it. * marks the point of attachment. Cbz = O=C(OCc1ccccc1)*; CHN2 = [N-]=[N+]=C*

Columns and labels:
SARS-CoV-2 USA-WA1/2020 [1] = type: cell-based; details: 2.5 and 1 μM, Vero E6, Table S3
SARS-CoV-2 = type: cell-based; details: 5 μM; reversed by RAR antagonist Ro41-5253 5 μM
SARS-CoV-2 HKU-001a [2] = type: cell-based; details: positive control of the screen
COVID-19 = COVID-19 patients, NIAID trial; cited from earlier work
SARS-CoV-2 USA-WA1/2020 [3] = assay: Time-of-addition assay in Vero E6 cells; type: cell-based; details: 2.5 μM
SARS-CoV-2 USA-WA1/2020 [4] = type: cell-based
[5] = read-out: Cmax; humans; cited from earlier work
SARS-CoV-2 HKU-001a [6] = type: cell-based
[7] = cited from earlier work
[8] = molecular target: SARS-CoV-2 papain-like protease (PLpro) (Severe acute respiratory syndrome coronavirus 2, UniProt P0DTD1); type: biochemical; details: 1 to 50 μM
[9] = molecular target: SARS-CoV-2 main protease (Mpro) (Severe acute respiratory syndrome coronavirus 2, UniProt P0DTD1); type: biochemical; details: 1 to 50 μM
SARS-CoV-2 USA-WA1/2020 [10] = assay: Drug synergy quantification with remdesivir in Vero E6 cells; type: cell-based

Compound: CC(/C=C/C=C(\C)c1cc(C(C)(C)C)cc(C(C)(C)C)c1)=C\C(=O)O [LGD-1550]
- validation as inhibitor of SARS-CoV-2 replication (SARS-CoV-2 USA-WA1/2020 [1]): validated

Compound: CCOC(=O)c1ccc(C#Cc2ccc3c(c2)C(C)(C)CCS3)nc1 [tazarotene]
- effect on viral replication, chemical epistasis (SARS-CoV-2): inhibition of viral replication
- validation as inhibitor of SARS-CoV-2 replication (SARS-CoV-2 USA-WA1/2020 [1]): validated

Compound: COc1ccc(CCN2CCC(Nc3nc4ccccc4n3Cc3ccc(F)cc3)CC2)cc1 [Astemizole]
- validation as inhibitor of SARS-CoV-2 replication (SARS-CoV-2 USA-WA1/2020 [1]): confirmed to inhibit SARS-CoV-2 replication

Compound: CCN(CC)CCCNc1ccnc2cc(Cl)ccc12 [AQ-13]
- validation as inhibitor of SARS-CoV-2 replication (SARS-CoV-2 USA-WA1/2020 [1]): validated

Compound: Cc1cccc(/C=N/Nc2cc(N3CCOCC3)n3nc(-c4ccncc4)cc3n2)c1 [APY0201]
- antiviral activity in CPE assay (SARS-CoV-2 HKU-001a [2]): confirmed the potential antiviral activity

Compound: CCC(CC)COC(=O)[C@H](C)N[P@](=O)(OC[C@H]1O[C@@](C#N)(c2ccc3c(N)ncnn23)[C@H](O)[C@@H]1O)Oc1ccccc1 [Remdesivir]
- improved time to recovery in treated patients (COVID-19): 47%

Compound: CCOC(=O)c1ncc2[nH]c3cccc(OC(C)C)c3c2c1C [ZK-93426]
- validation as inhibitor of SARS-CoV-2 replication (SARS-CoV-2 USA-WA1/2020 [1]): validated

Compound: CC1=C(/C=C/C(C)=C/C=C/C(C)=C/C(=O)O)C(C)(C)CCC1 [tretinoin]
- validation as inhibitor of SARS-CoV-2 replication (SARS-CoV-2 USA-WA1/2020 [1]): validated

Compound: Cc1cccc(/C=N/Nc2cc(N3CCOCC3)nc(OCCc3ccccn3)n2)c1 [Apilimod]
- step of viral life cycle inhibited, time of addition (SARS-CoV-2 USA-WA1/2020 [3]): inhibit viral replication during entry
- reduction of number of infected cells (SARS-CoV-2 USA-WA1/2020 [4]): 85%
- Cmax [5]: 265 nM
- antiviral activity in ex vivo lung culture (SARS-CoV-2 HKU-001a [6]): potently antagonizes viral replication
- doses showing a desirable safety profile in humans ([7]; well tolerated): ≤ 125 mg BID

Compound: CC(C)CCC(=O)CC1c2ccccc2C(=O)N1c1ccc2ccc(Cl)nc2n1 (stereo not drawn) [pagoclone]
- validation as inhibitor of SARS-CoV-2 replication (SARS-CoV-2 USA-WA1/2020 [1]): validated

Compound: CC1(C)CCC(C)(C)c2cc(NC(=O)c3ccc(C(=O)O)cc3)ccc21 [tamibarotene]
- validation as inhibitor of SARS-CoV-2 replication (SARS-CoV-2 USA-WA1/2020 [1]): validated

Compound: COc1cc(C)c(/C=C/C(C)=C/C=C/C(C)=C/C(=O)O)c(C)c1C [acitretin]
- validation as inhibitor of SARS-CoV-2 replication (SARS-CoV-2 USA-WA1/2020 [1]): validated; also recorded: confirmed to inhibit SARS-CoV-2 replication

Compound: C[C@@H]1CS/C(=N\NC(=O)C(=O)[C@H](NC(=O)C2CCCCCC2)C2CCOCC2)N1C [ONO 5334]
- inhibitory activity upon PLpro [8]: lack potent inhibitory activity
- inhibitory activity upon 3CLpro / Mpro [9]: lack potent inhibitory activity
- reduction of number of infected cells (SARS-CoV-2 USA-WA1/2020 [4]): 72%
- tolerability in phase II clinical trials ([7]; treatment of osteoporosis): well tolerated

Compound: CC(C)CC(NC(=O)OCc1ccccc1)C(=O)NC(C(=O)NCC(=O)C=[N+]=[N-])C(C)C (stereo not drawn) [Z LVG CHN2] (Cbz-Leu-Val-Gly-CHN2; configuration not given here)
- inhibitory activity upon PLpro [8]: lack potent inhibitory activity
- inhibitory activity upon 3CLpro / Mpro [9]: lack potent inhibitory activity

Compound: COc1ccc2cc1Oc1ccc(cc1)C[C@H]1c3cc(c(OC)cc3CCN1C)Oc1c(OC)c(OC)cc3c1[C@H](C2)N(C)CC3 [Hanfangchin A, Tetrandrine]
- synergy with remdesivir (SARS-CoV-2 USA-WA1/2020 [10]): notable levels of synergy with remdesivir
- validation as inhibitor of SARS-CoV-2 replication (SARS-CoV-2 USA-WA1/2020 [1]): validated

Compound: MDL 28170
- inhibitory activity upon PLpro [8]: lack potent inhibitory activity
- inhibitory activity upon 3CLpro / Mpro [9]: lack potent inhibitory activity
- reduction of number of infected cells (SARS-CoV-2 USA-WA1/2020 [4]): 65%

Compound: COc1cc(F)cc2c1-c1ccc(F)cc1C21NC(=O)NC1=O (stereo not drawn) [AL 3152]
- validation as inhibitor of SARS-CoV-2 replication (SARS-CoV-2 USA-WA1/2020 [1]): validated

Compound: CCN(C(C)=O)c1cccc(-c2ccnc3c(C#N)cnn23)c1 [zaleplon GR]
- validation as inhibitor of SARS-CoV-2 replication (SARS-CoV-2 USA-WA1/2020 [1]): validated

Compound: CC[C@H](NC(=O)[C@H](CS(=O)(=O)CC1CC1)N[C@@H](c1ccc(F)cc1)C(F)(F)F)C(=O)C(=O)NC1CC1 [VBY-825]
- inhibitory activity upon PLpro [8]: lack potent inhibitory activity
- inhibitory activity upon 3CLpro / Mpro [9]: lack potent inhibitory activity

Compound: CCN(CC)CCCC(C)Nc1ccnc2cc(Cl)ccc12 (stereo not drawn) [chloroquine]
- validation as inhibitor of SARS-CoV-2 replication (SARS-CoV-2 USA-WA1/2020 [1]): confirmed to inhibit SARS-CoV-2 replication
